Measured values from patent publication US20230085307A1, “PYRIDAZINONE COMPOUND AND HERBICIDE” (NISSAN CHEMICAL CORPORATION, priority 2019, published 2023).

How the values were obtained:
[1] = tested on: barnyard grass; assay: Test Example 5: herbicidal effect by foliage application, plastic box (Table 20, symbol H); assay type: in vivo, barnyard grass (Echinochloa crus-galli); settings: foliage application, 320 g/ha, evaluated three weeks after application
Procedure, shortened: (§1)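 Plants were sown into sterilized diluvial soil under about 1.5 cm cover and kept in a greenhouse at 25° C. to 30° C. Fourteen days on, foliage received an even spray of the diluted emulsion. Herbicidal or crop effect was judged three weeks afterwards.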

[2] = tested on: rice flat sedge; assay: Test Example 3: herbicidal effect by foliage application, Wagner pot (Table 18, symbol E); assay type: in vivo, rice flat sedge (Cyperus iria); settings: for herbicidal effect on E (rice flat sedge), rating 0-5: 320 g/ha; for herbicidal effect on E: rice flat sedge: amount of applied herbicide 320 g/ha
Procedure, shortened: (§2)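 Plants were sown in alluvial soil held under 0.1–0.5 cm standing water and grown 14 days in a greenhouse at 25–30 °C. An emulsifiable formulation, water-diluted to the set dose, was then sprayed onto the foliage, and effects were scored three weeks later using previously defined criteria.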

[3] = tested on: Italian ryegrass; assay: Test Example 4: herbicidal effect by soil treatment (Table 19, symbol K); assay type: in vivo, Italian ryegrass (Lolium multiflorum); settings: amount of applied herbicide 320 g/ha
Procedure, shortened: (§3)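 In this soil treatment, the formulated compound reached the seeds only through the soil: seeds were buried about 1.5 cm deep in sterilized diluvial soil, then the diluted emulsion was sprayed over the surface. After three weeks at 25° C. to 30° C. in a greenhouse, effects were graded on criteria from an earlier test.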

[4] = tested on: Italian ryegrass; assay: Test Example 5: herbicidal effect by foliage application, plastic box (Table 20, symbol K); assay type: in vivo, Italian ryegrass (Lolium multiflorum); settings: foliage application, 320 g/ha, evaluated three weeks after application
Procedure, shortened: as §1

[5] = tested on: wild oat; assay: Test Example 4: herbicidal effect by soil treatment (Table 19, symbol I); assay type: in vivo, wild oat (Avena fatua); settings: amount of applied herbicide 320 g/ha
Procedure, shortened: as §3

[6] = tested on: late watergrass; assay: Test Example 1: herbicidal activity, application before weed generation under submerged conditions (Table 16, symbol A); assay type: in vivo, late watergrass (Echinochloa oryzicola); settings: 320 g/ha applied herbicide
Procedure, shortened: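 Alluvial soil was flooded to 4 cm depth, weed seeds were sown mixed and 2.5-leaf rice seedlings were transplanted. On sowing day, the compound's emulsion, diluted in water to a set dose, was applied to the water surface. Plants grew at 25–30 °C and were scored 0–5 after three weeks.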

[7] = tested on: lambsquarters; assay: Test Example 5: herbicidal effect by foliage application, plastic box (Table 20, symbol O); assay type: in vivo, lambsquarters (Chenopodium album); settings: foliage application, 320 g/ha, evaluated three weeks after application
Procedure, shortened: as §1

[8] = tested on: late watergrass; assay: Test Example 2: herbicidal activity, application during weed generation under submerged conditions (Table 17, symbol A); assay type: in vivo, late watergrass (Echinochloa oryzicola); settings: AAH 320 g/ha; application during weed generation, submerged conditions
Procedure, shortened: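 Mixed weed seedlings in alluvial soil under a 4 cm water layer, greenhouse-grown at 25–30° C. Compound given as a diluted emulsion into the floodwater at the 1–2 leaf stage; response graded after three weeks.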

[9] = tested on: chickweed; assay: Test Example 4: herbicidal effect by soil treatment (Table 19, symbol P); assay type: in vivo, common chickweed (Stellaria media); settings: amount of applied herbicide 320 g/ha
Procedure, shortened: as §3

[10] = tested on: Chinese sprangletop; assay: Test Example 3: herbicidal effect by foliage application, Wagner pot (Table 18, symbol D); assay type: in vivo, chinese sprangletop (Leptochloa chinensis); settings: for herbicidal effect on D (Chinese sprangletop), rating 0-5: 320 g/ha; for herbicidal effect on D: Chinese sprangletop: amount of applied herbicide 320 g/ha
Procedure, shortened: as §2

[11] = tested on: chickweed; assay: Test Example 5: herbicidal effect by foliage application, plastic box (Table 20, symbol P); assay type: in vivo, common chickweed (Stellaria media); settings: foliage application, 320 g/ha, evaluated three weeks after application
Procedure, shortened: as §1

[12] = tested on: redroot pigweed; assay: Test Example 5: herbicidal effect by foliage application, plastic box (Table 20, symbol N); assay type: in vivo, redroot pigweed (Amaranthus retroflexus); settings: foliage application, 320 g/ha, evaluated three weeks after application
Procedure, shortened: as §1

[13] = tested on: windgrass; assay: Test Example 4: herbicidal effect by soil treatment (Table 19, symbol L); assay type: in vivo, windgrass (Apera spica-venti); settings: amount of applied herbicide 320 g/ha
Procedure, shortened: as §3

[14] = tested on: southern crabgrass; assay: Test Example 4: herbicidal effect by soil treatment (Table 19, symbol F); assay type: in vivo, southern crabgrass (Digitaria ciliaris); settings: amount of applied herbicide 320 g/ha
Procedure, shortened: as §3

[15] = tested on: lambsquarters; assay: Test Example 4: herbicidal effect by soil treatment (Table 19, symbol O); assay type: in vivo, lambsquarters (Chenopodium album); settings: amount of applied herbicide 320 g/ha
Procedure, shortened: as §3

[16] = tested on: wild oat; assay: Test Example 5: herbicidal effect by foliage application, plastic box (Table 20, symbol I); assay type: in vivo, wild oat (Avena fatua); settings: foliage application, 320 g/ha, evaluated three weeks after application
Procedure, shortened: as §1

Row | Structure (SMILES) | herbicidal effect on H: barnyard grass [1] | herbicidal effect on E (rice flat sedge), rating 0-5 [2] | K: Italian ryegrass, herbicidal effect rating [3] | herbicidal effect on K: Italian ryegrass [4] | I: wild oat, herbicidal effect rating [5] | Herbicidal effect on A: late watergrass (grade 0-5) [6] | herbicidal effect on O: lambsquarters [7] | herbicidal effect rating, A: late watergrass [8] | P: chickweed, herbicidal effect rating [9] | herbicidal effect on D (Chinese sprangletop), rating 0-5 [10] | herbicidal effect on P: chickweed [11] | herbicidal effect on N: redroot pigweed [12] | L: windgrass, herbicidal effect rating [13] | F: southern crabgrass, herbicidal effect rating [14] | O: lambsquarters, herbicidal effect rating [15] | herbicidal effect on I: wild oat [16] | herbicidal effect on E: rice flat sedge [2] | herbicidal effect on D: Chinese sprangletop [10] | herbicidal effect on H: barnyard grass (criteria 0-5) [1] | herbicidal effect on K: Italian ryegrass (criteria 0-5) [4] | also measured
1 | CCCC(=O)Oc1c(C)nn(C)c(=O)c1-c1c(-c2ccc(Cl)cc2)sc2ccc(Cl)cc12 [2-100] | 5 (Herbicidal rate of 90% or more (almost completely withered)) | 3 (Herbicidal rate of 40% or more and less than 70%) | 3 (Herbicidal rate of 40% or more and less than 70%) | 5 (Herbicidal rate of 90% or more (almost completely withered)) | 0 (Herbicidal rate of 5% or less (almost no effect)) | 3 (Herbicidal rate of 40% or more and less than 70%) | 4 (Herbicidal rate of 70% or more and less than 90%) | 3 (Herbicidal rate of 40% or more and less than 70%) | 1 (Herbicidal rate of 5% or more and less than 20%) | 4 (Herbicidal rate of 70% or more and less than 90%) | 5 (Herbicidal rate of 90% or more (almost completely withered)) | 5 (Herbicidal rate of 90% or more (almost completely withered)) | 3 (Herbicidal rate of 40% or more and less than 70%) | 0 (Herbicidal rate of 5% or less (almost no effect)) | 2 (Herbicidal rate of 20% or more and less than 40%) | 5 (Herbicidal rate of 90% or more (almost completely withered)) |  |  |  |  | 
2 | COc1ccccc1-c1sc2ccc(Cl)cc2c1-c1c(O)c(C)nn(C)c1=O [2-101] | 3 (Herbicidal rate of 40% or more and less than 70%) | 5 (Herbicidal rate of 90% or more (almost completely withered)) | 3 (Herbicidal rate of 40% or more and less than 70%) | 4 (Herbicidal rate of 70% or more and less than 90%) | 0 (Herbicidal rate of 5% or less (almost no effect)) | 0 (Herbicidal rate of 5% or less (almost no effect)) | 5 (Herbicidal rate of 90% or more (almost completely withered)) | 0 (Herbicidal rate of 5% or less (almost no effect)) | 5 (Herbicidal rate of 90% or more (almost completely withered)) | 0 (Herbicidal rate of 5% or less (almost no effect)) | 5 (Herbicidal rate of 90% or more (almost completely withered)) | 5 (Herbicidal rate of 90% or more (almost completely withered)) | 0 (Herbicidal rate of 5% or less (almost no effect)) | 3 (Herbicidal rate of 40% or more and less than 70%) | 4 (Herbicidal rate of 70% or more and less than 90%) | 3 (Herbicidal rate of 40% or more and less than 70%) |  |  |  |  | 
3 | Cc1nn(C)c(=O)c(-c2c(-c3ccc(C#N)cc3)sc3ccc(Cl)cc23)c1O [2-112] | 4 (Herbicidal rate of 70% or more and less than 90%) |  | 5 (Herbicidal rate of 90% or more (almost completely withered)) | 5 (Herbicidal rate of 90% or more (almost completely withered)) | 0 (Herbicidal rate of 5% or less (almost no effect)) | 0 (Herbicidal rate of 5% or less (almost no effect)) | 4 (Herbicidal rate of 70% or more and less than 90%) | 3 (Herbicidal rate of 40% or more and less than 70%) | 5 (Herbicidal rate of 90% or more (almost completely withered)) |  | 5 (Herbicidal rate of 90% or more (almost completely withered)) | 5 (Herbicidal rate of 90% or more (almost completely withered)) | 5 (Herbicidal rate of 90% or more (almost completely withered)) | 3 (Herbicidal rate of 40% or more and less than 70%) | 5 (Herbicidal rate of 90% or more (almost completely withered)) | 5 (Herbicidal rate of 90% or more (almost completely withered)) | 5 (Herbicidal rate of 90% or more (almost completely withered)) | 4 (Herbicidal rate of 70% or more and less than 90%) |  |  | 
4 | CCCC(=O)Oc1c(C)nn(C)c(=O)c1-c1c(-c2cccc(F)c2)sc2ccc(F)cc12 [2-202] |  |  | 1 (Herbicidal rate of 5% or more and less than 20%) |  | 0 (Herbicidal rate of 5% or less (almost no effect)) | 3 (Herbicidal rate of 40% or more and less than 70%) |  | 4 (Herbicidal rate of 70% or more and less than 90%) | 4 (Herbicidal rate of 70% or more and less than 90%) |  |  |  | 0 (Herbicidal rate of 5% or less (almost no effect)) | 2 (Herbicidal rate of 20% or more and less than 40%) | 5 (Herbicidal rate of 90% or more (almost completely withered)) |  | 5 (Herbicidal rate of 90% or more (almost completely withered)) | 5 (Herbicidal rate of 90% or more (almost completely withered)) | 4 (Herbicidal rate of 70% or more and less than 90%) | 3 (Herbicidal rate of 40% or more and less than 70%) | herbicidal effect on O: lambsquarters (criteria 0-5) [7]: 4 (Herbicidal rate of 70% or more and less than 90%); herbicidal effect on P: chickweed (criteria 0-5) [11]: 5 (Herbicidal rate of 90% or more (almost completely withered)); herbicidal effect on N: redroot pigweed (criteria 0-5) [12]: 5 (Herbicidal rate of 90% or more (almost completely withered)); herbicidal effect on I: wild oat (criteria 0-5) [16]: 1 (Herbicidal rate of 5% or more and less than 20%)
5 | Cc1nn(C)c(=O)c(-c2c(-c3ccc(OC4CC4)cc3)sc3ccc(F)cc23)c1O [2-217] |  |  | 4 (Herbicidal rate of 70% or more and less than 90%) |  | 0 (Herbicidal rate of 5% or less (almost no effect)) | 5 (Herbicidal rate of 90% or more (almost completely withered)) |  | 3 (Herbicidal rate of 40% or more and less than 70%) | 4 (Herbicidal rate of 70% or more and less than 90%) |  |  |  | 0 (Herbicidal rate of 5% or less (almost no effect)) | 4 (Herbicidal rate of 70% or more and less than 90%) | 4 (Herbicidal rate of 70% or more and less than 90%) |  | 5 (Herbicidal rate of 90% or more (almost completely withered)) | 5 (Herbicidal rate of 90% or more (almost completely withered)) | 5 (Herbicidal rate of 90% or more (almost completely withered)) | 5 (Herbicidal rate of 90% or more (almost completely withered)) | herbicidal effect on O: lambsquarters (criteria 0-5) [7]: 4 (Herbicidal rate of 70% or more and less than 90%); herbicidal effect on P: chickweed (criteria 0-5) [11]: 5 (Herbicidal rate of 90% or more (almost completely withered)); herbicidal effect on N: redroot pigweed (criteria 0-5) [12]: 5 (Herbicidal rate of 90% or more (almost completely withered)); herbicidal effect on I: wild oat (criteria 0-5) [16]: 4 (Herbicidal rate of 70% or more and less than 90%)
